In US20060252774A1, “Regulation of type 5 adenylyl cyclase for treatment of neurodegenerative and cardiac diseases” (priority 2002, published 2006):
Entries after “also recorded” stand apart in the source; their conditions may differ.

Experiments:
[1] = biological target: T1, AC5 (Canis lupus familiaris, UniProt P30803); assay: Adenyl cyclase stimulation by forskolin derivatives, High five cell membranes overexpressing type V; assay type: biochemical; parameters: made in house; host or cells: High Five insect cells (membranes)
T1 sequence (P30803 whole entry, canonical isoform): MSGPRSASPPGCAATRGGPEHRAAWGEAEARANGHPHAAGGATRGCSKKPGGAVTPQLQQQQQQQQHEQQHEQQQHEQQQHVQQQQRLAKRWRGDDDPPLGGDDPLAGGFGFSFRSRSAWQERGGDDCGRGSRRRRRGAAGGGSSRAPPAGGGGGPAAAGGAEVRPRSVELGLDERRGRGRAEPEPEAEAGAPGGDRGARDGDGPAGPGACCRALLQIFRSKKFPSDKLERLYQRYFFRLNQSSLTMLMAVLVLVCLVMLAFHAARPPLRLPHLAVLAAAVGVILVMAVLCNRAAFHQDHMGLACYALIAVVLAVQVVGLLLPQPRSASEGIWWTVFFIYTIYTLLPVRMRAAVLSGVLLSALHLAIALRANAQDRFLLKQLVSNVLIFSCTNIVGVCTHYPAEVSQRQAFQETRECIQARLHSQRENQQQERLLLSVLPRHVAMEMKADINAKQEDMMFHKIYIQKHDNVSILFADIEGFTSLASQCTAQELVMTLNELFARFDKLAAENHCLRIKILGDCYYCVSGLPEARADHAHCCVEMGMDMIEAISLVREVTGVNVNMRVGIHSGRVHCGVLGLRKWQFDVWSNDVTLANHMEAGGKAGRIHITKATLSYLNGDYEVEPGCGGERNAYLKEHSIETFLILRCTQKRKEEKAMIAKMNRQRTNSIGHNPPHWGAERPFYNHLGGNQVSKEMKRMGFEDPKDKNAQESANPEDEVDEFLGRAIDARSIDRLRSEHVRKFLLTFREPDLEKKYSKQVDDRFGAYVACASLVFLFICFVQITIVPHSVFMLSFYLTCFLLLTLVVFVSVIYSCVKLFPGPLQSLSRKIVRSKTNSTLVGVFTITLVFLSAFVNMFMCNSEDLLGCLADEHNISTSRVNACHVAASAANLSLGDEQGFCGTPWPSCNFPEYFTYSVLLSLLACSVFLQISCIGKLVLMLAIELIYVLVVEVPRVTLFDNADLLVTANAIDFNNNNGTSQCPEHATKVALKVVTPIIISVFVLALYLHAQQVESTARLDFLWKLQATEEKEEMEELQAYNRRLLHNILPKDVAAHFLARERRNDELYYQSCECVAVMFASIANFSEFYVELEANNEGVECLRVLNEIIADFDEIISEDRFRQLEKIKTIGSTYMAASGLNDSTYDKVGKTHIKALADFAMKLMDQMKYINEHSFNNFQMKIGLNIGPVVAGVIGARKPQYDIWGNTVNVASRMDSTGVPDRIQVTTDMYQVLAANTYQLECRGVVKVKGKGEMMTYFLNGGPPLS
Method: (§1) FIG. 15: Effect of forskolin, 6[3-(dimethylamino)propionyl]-14,15-dihydroforskolin, and NKH477 on adenyl cyclase [isforms.] isoforms: Forskolin derivatives dose response effect (A-C). High five cell membranes overexpressing type II (A), type III (B), and type V (C) adenyl cyclases. Adenyl cyclase activity was measured in the presence of 5 mM of MgCl2 with various concentrations of forskolin (closed circles), 6[3-(dimethylamino)propionyl]-14,15-dihydroforskolin (D, open triangles) or NKH477 (open circles). Means±SEM from 4 independent experiments are shown. *, p<0.01 differences from the value with forskolin.

[2] = biological target: T2, AC2 (Rattus norvegicus, UniProt P26769); assay: Adenyl cyclase stimulation by forskolin derivatives, High five cell membranes overexpressing type II; assay type: biochemical; parameters: made in house; host or cells: High Five insect cells (membranes); conditions: 5 mM MgCl2
T2 sequence (P26769 whole entry): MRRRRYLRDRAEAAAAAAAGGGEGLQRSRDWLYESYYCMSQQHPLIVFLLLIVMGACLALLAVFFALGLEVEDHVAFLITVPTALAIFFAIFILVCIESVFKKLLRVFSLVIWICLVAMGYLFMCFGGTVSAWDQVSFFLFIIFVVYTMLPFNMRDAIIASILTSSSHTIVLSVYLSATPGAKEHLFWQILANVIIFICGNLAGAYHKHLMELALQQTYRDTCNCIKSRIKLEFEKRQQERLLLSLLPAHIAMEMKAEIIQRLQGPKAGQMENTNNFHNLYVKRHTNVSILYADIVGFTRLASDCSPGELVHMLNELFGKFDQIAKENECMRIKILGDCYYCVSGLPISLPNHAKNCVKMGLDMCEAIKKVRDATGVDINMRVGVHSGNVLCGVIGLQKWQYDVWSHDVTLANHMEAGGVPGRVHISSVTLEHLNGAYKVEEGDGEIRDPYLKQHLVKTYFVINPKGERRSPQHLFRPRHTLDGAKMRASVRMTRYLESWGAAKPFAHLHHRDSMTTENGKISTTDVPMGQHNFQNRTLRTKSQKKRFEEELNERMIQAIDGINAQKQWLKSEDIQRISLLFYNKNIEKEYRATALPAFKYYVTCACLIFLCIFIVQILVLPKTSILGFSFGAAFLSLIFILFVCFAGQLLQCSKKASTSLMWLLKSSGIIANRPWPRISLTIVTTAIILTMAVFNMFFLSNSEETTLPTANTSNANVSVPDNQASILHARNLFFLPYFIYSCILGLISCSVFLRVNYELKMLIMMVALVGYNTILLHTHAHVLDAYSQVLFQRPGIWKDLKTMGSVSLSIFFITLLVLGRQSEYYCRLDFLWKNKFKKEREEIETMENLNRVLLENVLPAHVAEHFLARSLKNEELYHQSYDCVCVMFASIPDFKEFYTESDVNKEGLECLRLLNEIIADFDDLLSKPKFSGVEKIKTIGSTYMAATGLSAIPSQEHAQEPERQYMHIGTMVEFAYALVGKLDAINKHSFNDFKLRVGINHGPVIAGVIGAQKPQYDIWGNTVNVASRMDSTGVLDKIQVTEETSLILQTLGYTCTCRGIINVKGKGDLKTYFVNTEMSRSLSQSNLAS
Method: as §1

[3] = biological target: T3, AC3 (Rattus norvegicus, UniProt P21932); assay: Adenyl cyclase stimulation by forskolin derivatives, High five cell membranes overexpressing type III; assay type: biochemical; conditions: 5 mM MgCl2
T3 sequence (P21932 1-1144): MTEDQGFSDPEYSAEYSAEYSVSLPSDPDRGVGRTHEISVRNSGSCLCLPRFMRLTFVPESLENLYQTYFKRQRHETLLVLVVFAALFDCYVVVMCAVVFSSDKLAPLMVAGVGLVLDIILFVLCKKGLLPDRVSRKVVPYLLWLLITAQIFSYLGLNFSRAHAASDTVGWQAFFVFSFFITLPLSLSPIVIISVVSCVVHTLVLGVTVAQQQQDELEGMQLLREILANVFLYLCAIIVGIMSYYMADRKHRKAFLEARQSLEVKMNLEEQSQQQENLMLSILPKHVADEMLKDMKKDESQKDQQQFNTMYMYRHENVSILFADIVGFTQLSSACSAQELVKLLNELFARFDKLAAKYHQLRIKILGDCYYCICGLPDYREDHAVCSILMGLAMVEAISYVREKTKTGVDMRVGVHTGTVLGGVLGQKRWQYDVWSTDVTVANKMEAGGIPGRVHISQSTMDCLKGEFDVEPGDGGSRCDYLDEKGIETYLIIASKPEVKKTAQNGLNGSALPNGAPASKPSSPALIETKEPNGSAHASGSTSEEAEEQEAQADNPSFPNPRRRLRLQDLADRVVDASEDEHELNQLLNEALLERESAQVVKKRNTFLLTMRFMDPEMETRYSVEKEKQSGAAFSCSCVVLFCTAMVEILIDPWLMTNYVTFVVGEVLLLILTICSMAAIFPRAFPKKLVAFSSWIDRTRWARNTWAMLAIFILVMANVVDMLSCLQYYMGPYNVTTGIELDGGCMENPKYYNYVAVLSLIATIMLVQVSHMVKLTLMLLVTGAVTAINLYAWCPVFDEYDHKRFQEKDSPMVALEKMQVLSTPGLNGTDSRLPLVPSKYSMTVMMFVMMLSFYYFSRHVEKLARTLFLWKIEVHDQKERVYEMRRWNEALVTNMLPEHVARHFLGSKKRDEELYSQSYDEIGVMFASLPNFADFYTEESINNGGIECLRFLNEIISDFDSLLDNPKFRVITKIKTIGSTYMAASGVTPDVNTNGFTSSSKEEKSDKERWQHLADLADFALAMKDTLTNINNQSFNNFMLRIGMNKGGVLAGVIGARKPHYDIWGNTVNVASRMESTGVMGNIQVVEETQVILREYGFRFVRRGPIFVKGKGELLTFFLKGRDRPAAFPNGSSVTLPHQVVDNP
Method: as §1

[4] = biological target: T1, AC5; parameters: made in house; host or cells: High Five insect cells (membranes); conditions: previously reported; potency on AC2 and AC3 remained similar; cited from earlier work
[5] = biological target: T2, AC2; assay: AC catalytic activity inhibition, AC2 isoform; assay type: biochemical
Excerpt: (§2) Classic inhibitors of AC include adenosine analogs or P-site inhibitors, and MDL12330A, a non-nucleic acid inhibitor.
(§3) Inventors will first determine the selectivity among the AC isoforms (FIG. 12).

[6] = test system: H9C2 cells; assay: cAMP accumulation in H9C2 cells; assay type: cell-based; conditions: 10 micro M forskolin and isoproterenol; compound 10 micro M
Method: FIG. 10: Effect of NKY80 and HI30435 on cAMP accumulation in H9C2 cells.[:] H9C2 cells were incubated in the presence of 10 micro M forskolin and isoproterenol and NKY80 or HI30435 (10 micro M), followed by cAMP accumulation assays (n=4-5, p<0.01).
(§4) Inventors will first determine the selectivity among the AC isoforms (FIG. 12). […] The IC50 values were calculated to be 0.32 micro M for AC5, 11.1 micro M for AC3, 65.3 micro M for AC2. The selectivity ratio of HI30435 was 207 between AC5 and AC2. […] The selectivity ratio was 18 between AC5 and AC2.

[7] = biological target: T3, AC3; assay: AC catalytic activity inhibition, AC3 isoform; assay type: biochemical; conditions: for IC50: 5 mM MgCl2 with Gsalpha/GTPgammaS/forskolin (50 micro M)
Excerpt: as §2, §3

[8] = biological target: T1, AC5; assay: AC catalytic activity inhibition, AC5 isoform; assay type: biochemical; parameters: IC50 for AC5; other: 5 mM MgCl2 with Gsalpha/GTPgammaS/forskolin (50 micro M); other: in the presence of Gsalpha/GTPgammaS/forskolin; other: 10 micro M; conditions: for IC50: 5 mM MgCl2 with Gsalpha/GTPgammaS/forskolin (50 micro M)
Excerpt: (§5) FIG. 11. […] The relative inhibitory activity versus control (% control activity) for various AC isoforms are shown. Data are means±S.D. of quadruplicate determinations.
(§6) Classic inhibitors of AC include adenosine analogs or P-site inhibitors, and MDL12330A, a non-nucleic acid inhibitor. However, not much was known about the isoform selectivity of these inhibitors. […] It was previously noted that AC2 was less sensitive to THFA than the other isoforms, giving a selectivity ratio of 1.8 when compared between AC6 and AC2.
as §4

[9] = test system: AC5; assay: AC catalytic activity inhibition, AC5 isoform; assay type: biochemical; conditions: for selectivity ratio between AC5 and AC2: inhibition of AC catalytic activity
Excerpt: as §5, §6, §4

[10] = test system: WT and AC5KO mice; assay: Pole test with dopaminergic agonists; assay type: in vivo, mouse; conditions: subcutaneous
Method: (§7) FIG. 27. Motor dysfunction in ACD-^−/− mice. Rotarod test (A)—Each mouse was placed on a 3.5-cm diameter rod covered with rubber to evaluate rotarod performance (14). Mice were left for 1 minute on the rod for habituation. The rod rotated gradually increasing from 4 to 40 rpm over the course of 5 min and the time that mice could stay on an accelerating rotarod without failing was recorded. Five trials were conducted for each individual 10-25 min apart within the dark phase of the light/dark cycle. Mice that stayed on the rotarod for >300 sec were considered complete responders, and their latencies were recorded as 300 sec. *p<0.05, relative to ^+/+; ^+/−, n=17-20. Activity tests (B and C)—The tests were performed as previously described (14, 15). Mice were put in the darkened testing room 60 minutes for habituation before testing. Locomotor activity (B) was assessed using an activity monitor equipped with photocell beams (Columbus Instruments, Ohio, USA). The number of photobeam interruptions in each perpendicular axis was recorded and totaled for 5 min. The behavior of the mice was recorded simultaneously by video camera for later analysis, and their rearing actions were counted (C). *p<0.05, relative to ^+/+, n=15-20. Pole test (D)—In order to evaluate bradykinesia, pole test was performed (16). In brief, mice were placed head upward on the top of a rough-surfaced pole (8 mm in diameter and 50 cm in height) that was wrapped with gauze to prevent slipping. The time until it turned completely downward (open bars, Tturn) and the time until it climbed down to the floor (closed bars, TLA) were measured *p<0.01, relative to ^+/+, n=14-17. Means±SEM are shown. Homozygous to (ACD^−/−) (closed circles, ^−/−), heterozygous (shaded circles, ^+/−), and wild type (WT) (open circles, ^+/+).
(§8) FIG. 32. Effect of dopaminergic agonists on motor functions Effects of SKF38393 on locomotor activity (A), rotarod test (B), and pole test (C) were compared. […] In rotarod test, the best performance out of five trials in each individual was evaluated. […]

[11] = test system: WT and AC5KO mice; assay: Locomotor activity test with dopaminergic agonists; assay type: in vivo, mouse; conditions: subcutaneous, SKF38393 25 or 50 mg/kg, cabergoline 0.2 or 1.0 mg/kg
Method: as §7, with “Activity tests (B and C)—The tests were performed as previously described (14, 15). Mice were put in the darkened testing room 60 minutes for habituation before testing.” left out, “Pole test (D)—In order to evaluate bradykinesia, pole test was performed (16). In brief, mice were placed head upward on the top of a rough-surfaced pole (8 mm in diameter and 50 cm in height) that was wrapped with gauze to prevent slipping.” left out, “Means±SEM are shown. Homozygous to (ACD^−/−) (closed circles, ^−/−), heterozygous (shaded circles, ^+/−), and wild type (WT) (open circles, ^+/+).” left out
FIG. 32. […] In rotarod test, the best performance out of five trials in each individual was evaluated. […]

[12] = test system: WT and AC5KO mice; assay: Rotarod test with dopaminergic agonists; assay type: in vivo, mouse; conditions: WT and AC5KO; subcutaneous; 25 or 50 mg/kg
Method: as §7, §8

[13] = test system: striatal AC; assay: D1 or D2 receptor agonist-stimulated AC activity in striatal membrane preparations; assay type: biochemical, mouse; conditions: WT striatal membranes; 1 μM
Method: AC catalytic activity was compared as previously described (15) using the membrane preparations from the striatum, cortex and cerebellum A). AC assays were conducted in the presence of 50 μM forskolin. […] D1 or D2 receptor agonist-stimulated AC activity was also examined (C). […] Each AC catalytic activity was compared to that in the presence of 10 μM GTP alone. Open bars, WT (^+/+); closed bars, AC5KO (^−/−). Means±SEM are shown. *p<0.05, **p<0.01, relative to ^+/+, n=4.
Striatal tissues were dissected from mice and membrane preparations were prepared for AC assays as previously described (10, 11).
We also examined receptor agonist-stimulated AC activity (FIG. 3C).

[14] = biological target: AC6 (Homo sapiens, UniProt O43306); conditions: previously noted; cited from earlier work
AC6, sequence (O43306 whole entry): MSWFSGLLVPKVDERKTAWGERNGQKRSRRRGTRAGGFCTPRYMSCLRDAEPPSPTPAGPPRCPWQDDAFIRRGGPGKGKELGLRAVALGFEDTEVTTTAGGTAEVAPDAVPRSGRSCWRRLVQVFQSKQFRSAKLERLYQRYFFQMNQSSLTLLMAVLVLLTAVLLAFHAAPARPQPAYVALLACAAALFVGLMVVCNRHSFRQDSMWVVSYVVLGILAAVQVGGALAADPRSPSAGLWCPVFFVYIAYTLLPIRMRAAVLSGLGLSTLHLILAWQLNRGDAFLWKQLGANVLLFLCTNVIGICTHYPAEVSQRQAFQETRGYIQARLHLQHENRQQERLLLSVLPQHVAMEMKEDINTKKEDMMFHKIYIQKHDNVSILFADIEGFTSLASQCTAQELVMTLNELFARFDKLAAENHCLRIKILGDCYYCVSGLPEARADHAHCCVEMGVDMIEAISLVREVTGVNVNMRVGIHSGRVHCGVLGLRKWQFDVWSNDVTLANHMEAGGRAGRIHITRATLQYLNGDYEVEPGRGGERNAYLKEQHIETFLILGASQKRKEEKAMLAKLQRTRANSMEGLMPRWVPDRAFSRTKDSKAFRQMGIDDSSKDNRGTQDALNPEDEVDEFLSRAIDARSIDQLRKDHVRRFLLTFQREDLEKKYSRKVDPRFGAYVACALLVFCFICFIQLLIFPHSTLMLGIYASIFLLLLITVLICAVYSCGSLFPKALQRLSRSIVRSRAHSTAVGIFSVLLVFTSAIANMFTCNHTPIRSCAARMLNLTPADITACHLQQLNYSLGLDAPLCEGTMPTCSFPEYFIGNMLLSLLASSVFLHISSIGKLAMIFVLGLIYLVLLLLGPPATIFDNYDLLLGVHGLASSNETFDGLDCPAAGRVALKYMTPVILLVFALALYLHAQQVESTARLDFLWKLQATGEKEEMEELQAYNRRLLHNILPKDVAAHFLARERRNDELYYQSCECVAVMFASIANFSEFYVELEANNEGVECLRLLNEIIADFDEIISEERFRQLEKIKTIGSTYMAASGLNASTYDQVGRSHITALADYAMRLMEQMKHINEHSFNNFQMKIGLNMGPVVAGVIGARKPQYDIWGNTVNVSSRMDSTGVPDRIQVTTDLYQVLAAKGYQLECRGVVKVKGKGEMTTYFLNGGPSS

[15] = in the presence of Gsalpha/GTPgammaS/forskolin

## CCC1(C)CC(=O)C2(O)C(C)(O1)C(OC(C)=O)C(OC(=O)CCN(C)C)C1C(C)(C)CCC(O)C12C (centres unmarked) [6-3(dimethylaminopropionyl]-14,15-dihydroforskolin]
[1]; 5 mM MgCl2
  relative potency of stimulation versus forskolin, AC5: 139%
[1]; forskolin derivatives
  AC5 selectivity of stimulation (in words): further enhancement in selectivity for AC5
[2]
  relative potency of stimulation versus forskolin, AC2: 66%
[3]
  relative potency of stimulation versus forskolin, AC3: 31%

## C=C[C@@]1(C)CC(=O)[C@]2(O)[C@@]3(C)[C@@H](O)CCC(C)(C)[C@@H]3[C@H](OC(=O)CCN(C)C)[C@H](OC(C)=O)[C@@]2(C)O1 [NKH477]
[4]
  stimulation of AC5 (in words): enhanced stimulation of AC5

## Nc1ncc2c(n1)CC(c1ccco1)CC2=O (centres unmarked) [NKY80, 2-amino-7-(2-furanyl)-7,8-dihydro-5(6H)-quinazolinone]
[5]; Gsalpha/GTPgammaS/forskolin
  IC50: 1700 µM
[6]
  cAMP accumulation in H9C2 cells: but not NKY80, inhibited cAMP accumulation; also recorded: did not
[7]
  IC50: 132 µM
[8]
  IC50: 8.3 µM
[9]; Lineweaver-Burk plot analysis
  mode of inhibition: not competitive with respect to ATP or forskolin
[9]
  selectivity ratio between AC5 and AC2: 210

## Oc1cc2c(cc1O)C(c1ccccc1)CNCC2 (centres unmarked) [SKF38393]
[10]
  pole test performance: improved pole test performance
[11]
  locomotor activity: increased locomotor activity in both WT and AC5KO
[12]
  rotarod performance: did not improve rotarod performance in both WT and AC5KO
[13]
  stimulation of AC activity, increase over that with 10 μM GTP: 40.7±2.6%

## Nc1ncnc2c1ncn2C1CCCO1 (centres unmarked) [THFA, 9-(tetrahydro-2-furyl)adenine]
[5]; 5 mM MgCl2 with Gsalpha/GTPgammaS/forskolin (50 micro M)
  IC50: 285 µM
[5]; [15]
  inhibition of AC2 (in words): only to a modest degree
[7]
  IC50: 101 µM
[7]; [15]
  inhibition of AC3 (in words): only to a modest degree
[14]
  selectivity ratio between AC6 and AC2: 1.8
[8]
  IC50: 2.2 µM
[8]; [15]
  inhibition of AC5 (in words): potently inhibited AC5
[9]
  selectivity ratio between AC5 and AC2: 130
